Like-named read-outs stand apart in the source and are kept apart here.
Molecular target: T1, Human CatS (Homo sapiens, UniProt P25774)
T1 construct: made in house; host or cells: Sf9 insect cells (baculovirus vector pFB+HT)
Test: CatS inhibition of hydrolysis of fluorescent substrate Z-Val-Val-Arg-AFC
Type: biochemical
Method: Human CatS was cloned into pFB+HT (from Stratagene clone), expressed in Sf9 cells, and purified over a Ni column. Fractions were concentrated and activated at pH 4.0 for 6 hr and then purified over a thiopropylsepharose column and eluted with 1×TBS, 500 mM NaCl, 1 mM EDTA, 25 mM DTT pH 7.6. Glycerol (50%) was added in a 1:1 (vol/vol) ratio (25% glycerol final) and protein was stored at −80° C. in 5 μL aliquots. […] The increase in fluorescence over time was monitored using λexcitation=400 nm and λemission=505 nm.
In equation 1, v is the initial rate measured in the presence of [I]0, the inhibitor concentration, using an enzyme concentration [E]0. v0 is the initial rate measured in the absence of inhibitor.

[1] = apparent Ki, Morrison equation fit of initial rates, 10 μM Z-Val-Val-Arg-AFC, pH 5.0, 1.5 nM CatS, read-out: CatS Ki^app

T1 sequence (P25774 115-331): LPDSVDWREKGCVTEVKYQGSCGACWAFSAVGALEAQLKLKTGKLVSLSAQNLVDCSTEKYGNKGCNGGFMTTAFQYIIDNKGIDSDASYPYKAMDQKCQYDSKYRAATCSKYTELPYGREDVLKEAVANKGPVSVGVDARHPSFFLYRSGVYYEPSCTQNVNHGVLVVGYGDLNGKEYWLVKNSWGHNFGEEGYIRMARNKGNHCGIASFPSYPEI

| Ki [1] | Ki | Structure (SMILES) |
| --- | --- | --- |
| 125 nM |  | CCC(NC(=O)c1cccc(-c2cc(-c3nn(CCCN4CCCC4)c4c3CN(S(C)(=O)=O)CC4)ccc2Cl)c1)c1nc2cc(C)ccc2[nH]1 (stereo not drawn) [Example 17, 2′-Chloro-5′-[5-methanesulfonyl-1-(3-pyrrolidin-1-yl-propyl)-4,5,6,7-tetrahydro-1H-pyrazolo[4,3-c]pyridin-3-yl]-biphenyl-3-carboxylic acid [1-(5-methyl-1H-benzoimidazol-2-yl)-propyl]-amide] |
| 22.6 nM |  | CC(NC(=O)c1cccc(-c2cc(-c3nn(CCCN4CCCC4)c4c3CN(S(C)(=O)=O)CC4)ccc2Cl)c1)c1nc2ccccc2[nH]1 (stereo not drawn) [Example 18, 2′-Chloro-5′-[5-methanesulfonyl-1-(3-pyrrolidin-1-yl-propyl)-4,5,6,7-tetrahydro-1H-pyrazolo[4,3-c]pyridin-3-yl]-biphenyl-3-carboxylic acid [1-(1H-benzoimidazol-2-yl)-ethyl]-amide] |
| 269 nM |  | CS(=O)(=O)N1CCc2c(c(-c3ccc(Cl)c(-c4cccc(C(=O)NCc5nccs5)c4)c3)nn2CCCN2CCCC2)C1 [Example 19, 2′-Chloro-5′-[5-methanesulfonyl-1-(3-pyrrolidin-1-yl-propyl)-4,5,6,7-tetrahydro-1H-pyrazolo[4,3-c]pyridin-3-yl]-biphenyl-3-carboxylic acid (thiazol-2-ylmethyl)-amide] |
|  | 188 nM | Cc1ccc2[nH]c([C@H](C)NC(=O)c3cccc(-c4cc(-c5nn(CCCN6CCCC6)c6c5CN(S(C)(=O)=O)CC6)ccc4Cl)c3)nc2c1 [Example 20, (S)-2′-Chloro-5′-[5-methanesulfonyl-1-(3-pyrrolidin-1-yl-propyl)-4,5,6,7-tetrahydro-1H-pyrazolo[4,3-c]pyridin-3-yl]-biphenyl-3-carboxylic acid [1-(5-methyl-1H-benzoimidazol-2-yl)-ethyl]-amide] |
| 70.3 nM |  | CS(=O)(=O)N1CCc2c(c(-c3ccc(Cl)c(-c4cccc(C(=O)NCc5nc6cc(Cl)ccc6[nH]5)c4)c3)nn2CCCN2CCCC2)C1 [Example 21, 2′-Chloro-5′-[5-methanesulfonyl-1-(3-pyrrolidin-1-yl-propyl)-4,5,6,7-tetrahydro-1H-pyrazolo[4,3-c]pyridin-3-yl]-biphenyl-3-carboxylic acid (5-chloro-1H-benzoimidazol-2-ylmethyl)-amide] |
| 75.4 nM |  | CC(C)(C)c1csc(CNC(=O)c2cccc(-c3cc(-c4nn(CCCN5CCCC5)c5c4CN(S(C)(=O)=O)CC5)ccc3Cl)c2)n1 [Example 22, 2′-Chloro-5′-[5-methanesulfonyl-1-(3-pyrrolidin-1-yl-propyl)-4,5,6,7-tetrahydro-1H-pyrazolo[4,3-c]pyridin-3-yl]-biphenyl-3-carboxylic acid (4-tert-butyl-thiazol-2-ylmethyl)-amide] |
| 88.9 nM |  | CS(=O)(=O)N1CCc2c(c(-c3ccc(Cl)c(-c4cccc(C(=O)NCc5nc(-c6ccccc6)cs5)c4)c3)nn2CCCN2CCCC2)C1 [Example 23, 2′-Chloro-5′-[5-methanesulfonyl-1-(3-pyrrolidin-1-yl-propyl)-4,5,6,7-tetrahydro-1H-pyrazolo[4,3-c]pyridin-3-yl]-biphenyl-3-carboxylic acid (4-phenyl-thiazol-2-ylmethyl)-amide] |
| 175 nM |  | C[C@@H](NC(=O)c1cccc(-c2cc(-c3nn(CCCN4CCCC4)c4c3CN(S(C)(=O)=O)CC4)ccc2Cl)c1)c1nc(-c2ccccc2)cs1 [Example 24, (R)-2′-Chloro-5′-[5-methanesulfonyl-1-(3-pyrrolidin-1-yl-propyl)-4,5,6,7-tetrahydro-1H-pyrazolo[4,3-c]pyridin-3-yl]-biphenyl-3-carboxylic acid [1-(4-phenyl-thiazol-2-yl)-ethyl]-amide] |
| 117 nM |  | CS(=O)(=O)N1CCc2c(c(-c3ccc(Cl)c(-c4cccc(C(=O)NCc5nc6cc(F)ccc6s5)c4)c3)nn2CCCN2CCCC2)C1 [Example 25, 2′-Chloro-5′-[5-methanesulfonyl-1-(3-pyrrolidin-1-yl-propyl)-4,5,6,7-tetrahydro-1H-pyrazolo[4,3-c]pyridin-3-yl]-biphenyl-3-carboxylic acid (5-fluoro-benzothiazol-2-ylmethyl)-amide] |

Reference: US20080207683A1, “BIARYL-S[…]-PYRAZOLO-PYRIDINE MODULATORS OF CATHEPSIN S” (priority 2007, published 2008)
